Test results from patent publication US20250129103A1, “METHODS FOR TREATMENT OF CANCER” (Frontier Medicines Corporation, priority 2022, published 2025).
Values after ≈ are worked out from the molar mass of the structure shown.

Assays:
[1] = target: KRAS G12C (GMPPNP-loaded) and cRAF (Ras-binding domain) interaction (Homo sapiens (Human), UniProt P01116, C118S/C51S/C80L/G12C); assay: Inhibition of KRAS G12C and cRAF binding (AlphaScreen); details: KRAS G12C loaded with GMPPNP, cRaf RBD, 2 hours preincubation; read-out: Raf-1 RBD K-Ras IC50
KRAS G12C (GMPPNP-loaded) and cRAF (Ras-binding domain) interaction, sequence (P01116 other isoform, or with tags, fused parts or gaps G12C/C51S/C80L/C118S): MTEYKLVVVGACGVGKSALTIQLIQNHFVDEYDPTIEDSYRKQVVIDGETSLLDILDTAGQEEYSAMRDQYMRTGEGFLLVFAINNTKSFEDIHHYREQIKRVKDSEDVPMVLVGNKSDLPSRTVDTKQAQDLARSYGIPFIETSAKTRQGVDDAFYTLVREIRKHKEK
Outline: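 AlphaScreen readout (680 nm excitation, 570 nm emission) of RBD binding after a 60-90 min bead step at room temperature. This step follows 2 h compound exposure of GMPPNP-preloaded KRAS G12C in Hepes pH 7.4 buffer with MgCl2 and 10 μM GMPPNP.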

[2] = target: KRAS G12C (GMPPNP-loaded) and PI3Ka (Ras-binding domain) interaction (Homo sapiens (Human), UniProt P01116, C118S/C51S/C80L/G12C); assay: Inhibition of KRAS G12C and PI3Ka binding (AlphaScreen); details: KRAS G12C loaded with GMPPNP, PI3Ka RBD, 2 hours preincubation; read-out: PI3K RBD K-Ras IC50
KRAS G12C (GMPPNP-loaded) and PI3Ka (Ras-binding domain) interaction, sequence (P01116 other isoform, or with tags, fused parts or gaps G12C/C51S/C80L/C118S): as above
Outline: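 Biotin-AviTag Cys-light KRAS G12C (aa 1-169, C51S/C80L/C118S), GMPPNP-loaded, 1.5 nM, preincubated 2 h with compound, then His-tagged PI3Ka RBD (aa 157-300, 100 nM) plus AlphaScreen beads added for 60-90 min, RT. Buffer Hepes pH 7.4, 10 μM GMPPNP, 2% DMSO; 10-point 1:3 from 50 μM; 4-parameter IC50.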

[3] = Determination of logD (1-octanol / phosphate buffer pH 7.4); format: physicochemical; details: 1-octanol/phosphate buffer, pH 7.4, pH 7.4, 1-octanol/phosphate buffer; read-out: Log D, pH 7.4
Outline: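 Each phase analysed by LCMS after 1 h shaking at 800 rpm and centrifugation, room temperature. Phases were mutually saturated 1-octanol and 100 mM phosphate buffer at pH 7.4. LogD derived from the phase concentrations.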

[4] = Determination of kinetic solubility (pH 7.4); format: physicochemical; details: phosphate buffer, pH 7.4, aqueous buffer, kinetic from dmso stock, 50 mM phosphate buffer pH 7.4, read-out: Ksol, pH 7.4
Outline: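 Solubility taken from filtrate peak areas on a calibration curve (HPLC-UV, LC-MS/MS). Before filtration and centrifugation, compound was shaken for 2 h at room temperature in pH 7.4 50 mM phosphate buffer.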

Cc1nsc(/C=C/C(=O)N2CCN(c3nc(OC[C@@]45CCCN4C[C@H](F)C5)nc4c(F)c(-c5cccc6cccc(Cl)c56)ncc34)C[C@@H]2CC#N)n1 [Compound 138]
IC50 [1]: < 10 nM
IC50 [2]: < 10 nM
logD [3]: 3.9
solubility kinetic at 2 h [4]: 0.01 µg/mL (≈ 0.0135 µM)

N#CC[C@H]1CN(c2nc(OCC34CCCN3CCC4)nc3c2CCN(c2cccc4cccc(Cl)c24)C3)CCN1C(=O)/C=C/CN1CCSCC1 [Compound 171]
IC50 [1]: < 10 nM
IC50 [2]: < 10 nM
logD [3]: 3.3
solubility kinetic at 2 h [4]: 108 µg/mL (≈ 149 µM)

N#CC[C@H]1CN(c2nc(OC[C@@]34CCCN3C[C@H](F)C4)nc3c(F)c(-c4cccc5ccc(F)c(Cl)c45)ncc23)CCN1C(=O)/C=C/CN1CC2CC(C1)O2 [Example 77, 2-((2S)-1-((E)-4-(6-oxa-3-azabicyclo[3.1.1]heptan-3-yl)but-2-enoyl)-4-(7-(8-chloro-7-fluoronaphthalen-1-yl)-8-fluoro-2-(((2R,7aS)-2-fluorotetrahydro-1H-pyrrolizin-7a(5H)-yl)methoxy)pyrido[4,3-d]pyrimidin-4-yl)piperazin-2-yl)acetonitrile]
IC50 [1]: < 10 nM
IC50 [2]: < 10 nM
logD [3]: 2.92
solubility kinetic at 2 h [4]: 116 µg/mL (≈ 151 µM)

Cc1nccc(/C=C/C(=O)N2CCN(c3nc(OC[C@@]45CCCN4C[C@H](F)C5)nc4c3CCN(c3cccc5cccc(Cl)c35)C4)C[C@@H]2CC#N)n1 [Compound 123]
IC50 [1]: < 10 nM
IC50 [2]: < 10 nM
logD [3]: 4.46
solubility kinetic at 2 h [4]: 0.01 µg/mL (≈ 0.0138 µM)

N#CC[C@H]1CN(c2nc(OC[C@@]34CCCN3C[C@H](F)C4)nc3c(F)c(-c4cccc(Cl)c4C(F)(F)F)ncc23)CCN1C(=O)/C=C/CN1CCCOCC1 [Compound 113, 2-((S)-1-((E)-4-(1,4-oxazepan-4-yl)but-2-enoyl)-4-(7-(3-chloro-2-(trifluoromethyl)phenyl)-8-fluoro-2-(((2R,7aS)-2-fluorotetrahydro-1H-pyrrolizin-7a(5H)-yl)methoxy)pyrido[4,3-d]pyrimidin-4-yl)piperazin-2-yl)acetonitrile]
IC50 [1]: < 10 nM
IC50 [2]: < 10 nM
logD [3]: 2.84
solubility kinetic at 2 h [4]: 124 µg/mL (≈ 160 µM)

N#CC[C@H]1CN(c2nc(OC[C@@]34CCCN3C[C@H](F)C4)nc3c2CCN(c2cccc4ccc(F)c(Cl)c24)C3)CCN1C(=O)/C=C/CN1CCOCC1 [Compound 52]
IC50 [1]: < 10 nM
IC50 [2]: < 10 nM
logD [3]: 3.8
solubility kinetic at 2 h [4]: 23.8 µg/mL (≈ 31.8 µM)

Cc1nsc(/C=C/C(=O)N2CCN(c3nc(OCC45CCCN4CCC5)nc4c(F)c(-c5cccc6ccc(F)c(Cl)c56)ncc34)C[C@@H]2CC#N)n1 [Compound 156]
IC50 [1]: < 10 nM
IC50 [2]: < 10 nM
logD [3]: 2.78
solubility kinetic at 2 h [4]: 84.5 µg/mL (≈ 114 µM)

N#CC[C@H]1CN(c2nc(OC[C@@]34CCCN3C[C@H](F)C4)nc3c(F)c(-c4cccc5ccc(F)c(F)c45)ncc23)CCN1C(=O)/C=C/CN1C[C@H]2COC[C@H]2C1 [Compound 223]
IC50 [1]: < 10 nM
IC50 [2]: < 10 nM
logD [3]: 3
solubility kinetic at 2 h [4]: 118 µg/mL (≈ 153 µM)

N#CC[C@H]1CN(c2nc(OCC34CCCN3CCC4)nc3c2CCN(c2cccc4ccc(F)c(Cl)c24)C3)CCN1C(=O)/C=C/CN1CCOCC1 [Compound 50]
IC50 [1]: < 10 nM
IC50 [2]: < 10 nM
logD [3]: 2.27
solubility kinetic at 2 h [4]: 124 µg/mL (≈ 171 µM)

N#CC[C@H]1CN(c2nc(OCC34CCCN3CCC4)nc3c2CCN(c2cccc4cccc(Cl)c24)C3)CCN1C(=O)/C=C/c1ccncn1 [Example 10, (S,E)-2-(4-(7-(8-chloronaphthalen-1-yl)-2-((hexahydro-1H-pyrrolizin-7a-yl)methoxy)-5,6,7,8-tetrahydropyrido[3,4-d]pyrimidin-4-yl)-1-(3-(pyrimidin-4-yl)acryloyl)piperazin-2-yl)acetonitrile]
IC50 [1]: < 10 nM
IC50 [2]: < 10 nM
logD [3]: 2.93
solubility kinetic at 2 h [4]: 99 µg/mL (≈ 143 µM)

N#CC[C@H]1CN(c2nc(OC[C@@]34CCCN3C[C@H](F)C4)nc3c(F)c(-c4cccc5ccc(F)c(Cl)c45)ncc23)CCN1C(=O)/C=C/c1ccnc(C2CC2)n1 [Compound 208]
IC50 [1]: < 10 nM
IC50 [2]: < 10 nM
logD [3]: 4.2
solubility kinetic at 2 h [4]: 0.01 µg/mL (≈ 0.0128 µM)

Cc1nsc(/C=C/C(=O)N2CCN(c3nc(OCC45CCCN4CCC5)nc4c3CCN(c3cccc5ccc(F)c(Cl)c35)C4)C[C@@H]2CC#N)n1 [Compound 141]
IC50 [1]: < 10 nM
IC50 [2]: < 10 nM
logD [3]: 3.43
solubility kinetic at 2 h [4]: 84 µg/mL (≈ 115 µM)

N#CC[C@H]1CN(c2nc(OC[C@@]34CCCN3C[C@H](F)C4)nc3c(F)c(-c4cccc5ccc(F)c(F)c45)ncc23)CCN1C(=O)/C=C/CN1CCSCC1 [Compound 238]
IC50 [1]: < 10 nM
IC50 [2]: < 10 nM
logD [3]: 3.48
solubility kinetic at 2 h [4]: 21.3 µg/mL (≈ 28 µM)

Cc1nccc(/C=C/C(=O)N2CCN(c3nc(OCC45CCCN4CCC5)nc4c(F)c(-c5cccc6cccc(Cl)c56)ncc34)C[C@@H]2CC#N)n1 [Compound 139]
IC50 [1]: 10 to 100 nM
IC50 [2]: < 10 nM
logD [3]: 1.93
solubility kinetic at 2 h [4]: 107 µg/mL (≈ 150 µM)

N#CC[C@H]1CN(c2nc(OC[C@@]34CCCN3C[C@H](F)C4)nc3c(F)c(-c4cccc5cccc(F)c45)ncc23)CCN1C(=O)/C=C/CN1[C@@H]2CC[C@H]1COC2 [Compound 94, 2-((S)-1-((E)-4-((1R,5S)-3-oxa-8-azabicyclo[3.2.1]octan-8-yl)but-2-enoyl)-4-(8-fluoro-7-(8-fluoronaphthalen-1-yl)-2-(((2R,7aS)-2-fluorotetrahydro-1H-pyrrolizin-7a(5H)-yl)methoxy)pyrido[4,3-d]pyrimidin-4-yl)piperazin-2-yl)acetonitrile]
IC50 [1]: < 10 nM
IC50 [2]: < 10 nM
logD [3]: 3.11
solubility kinetic at 2 h [4]: 90.2 µg/mL (≈ 120 µM)

C[C@H]1CN(C/C=C/C(=O)N2CCN(c3nc(OC[C@@]45CCCN4C[C@H](F)C5)nc4c(F)c(-c5cccc6cccc(Cl)c56)ncc34)C[C@@H]2CC#N)C[C@H](C)O1 [Compound 188]
IC50 [1]: < 10 nM
IC50 [2]: < 10 nM
logD [3]: 3.86
solubility kinetic at 2 h [4]: 79.1 µg/mL (≈ 103 µM)

Cc1cc(/C=C/C(=O)N2CCN(c3nc(OC[C@@]45CCCN4C[C@H](F)C5)nc4c(F)c(-c5cccc6ccc(F)c(F)c56)ncc34)C[C@@H]2CC#N)nc(C)n1 [Example 90, 2-((S)-4-(7-(7,8-difluoronaphthalen-1-yl)-8-fluoro-2-(((2R,7aS)-2-fluorotetrahydro-1H-pyrrolizin-7a(5H)-yl)methoxy)pyrido[4,3-d]pyrimidin-4-yl)-1-((E)-3-(2,6-dimethylpyrimidin-4-yl)acryloyl)piperazin-2-yl)acetonitrile]
IC50 [1]: 10 to 100 nM
IC50 [2]: < 10 nM
logD [3]: 3.77
solubility kinetic at 2 h [4]: 5.26 µg/mL (≈ 7 µM)

CCc1c(F)ccc2cccc(-c3ncc4c(N5CCN(C(=O)/C=C/CN6CCOCC6)[C@@H](CC#N)C5)nc(OC[C@@]56CCCN5C[C@H](F)C6)nc4c3F)c12 [Compound 226]
IC50 [1]: 10 to 100 nM
IC50 [2]: < 10 nM
logD [3]: 2.63
solubility kinetic at 2 h [4]: 103 µg/mL (≈ 137 µM)
